PMC9455983 (International Journal of Molecular Sciences, 2022)
Values joined by “and” are separate entries in the source; they are usually repeats but may differ in a detail not shown here. Identical values can stand only once. Like-named read-outs stand apart in the source and are kept apart here.

Assays:
[1] = target: T1, mu-opioid receptor (MOR) (Rattus norvegicus, UniProt P33535); assay: MOR radioligand competition binding assay ([3H]-DAMGO); settings: Mu screening results
T1 construct: Rat cortices were homogenized using 50 mM Tris, pH 7.4, and centrifuged at 16,500 rpm for 10 min; from tissue; host or cells: rat cortex membranes
Description: MOR binding assay: Rat cortices were homogenized using 50 mM Tris, pH 7.4, and centrifuged at 16,500 rpm for 10 min. The pellets were resuspended in fresh buffer and incubated at 37 °C for 30 min. Following incubation, the suspensions were centrifuged as before, the resulting pellets were resuspended in 100 volumes of 50 mM Tris, pH 7.4 plus 2 mg/mL bovine serum and the suspensions combined. Each assay tube contained 0.5 mL of membrane suspension, 2 nM [^3H]-DAMGO, and 0.02 mg/mL mixture in a total volume of 0.65 mL [13, 45, 53, 55].
(§1) All three binding assays were terminated by filtration through GF/B filters, soaked in 5 mg/mL bovine serum albumin, 50 mM Tris, pH 7.4, on a Tomtec Mach II Harvester 96. The filters were subsequently washed with 6 mL of assay buffer. Bound radioactivity was counted on a Wallac Betaplate Liquid Scintillation Counter. Experiments were conducted using two replicates and repeated twice. Values in Scheme 2 represent the mean ± SD of two experiments with two replicates in each test.

[2] = target: T2, kappa-opioid receptor (KOR) (Cavia porcellus, UniProt P41144); assay: KOR radioligand competition binding assay ([3H]U69,593); parameters: species or system guinea pig; settings: Kappa screening results
T2 construct: Guinea pig cortices and cerebella were homogenized using 50 mM Tris, pH 7.4; from tissue; host or cells: guinea pig cortex and cerebellum membranes
Description: KOR binding assay: Guinea pig cortices and cerebella were homogenized using 50 mM Tris, pH 7.4, 10 mM MgCl2-6H2O, […] centrifuged and incubated as above. Each assay tube contained 2 nM [^3H]U69,593. Assay tubes were incubated for 2 h at 25 °C. Unlabeled U50,488 was used as a competitor to generate a standard curve and determine nonspecific binding.
as §1

[3] = target: T3, delta-opioid receptor (DOR) (Rattus norvegicus, UniProt P33533); assay: DOR radioligand competition binding assay ([3H]-DPDPE); settings: Delta screening results
T3 construct: Rat cortices were homogenized using 50 mM Tris, pH 7.4, 10 mM MgCl2-6H2O, 200 µM PMSF; from tissue; host or cells: rat cortex membranes
Description: DOR binding assay: Rat cortices were homogenized using 50 mM Tris, pH 7.4, 10 mM MgCl2-6H2O, 200 µM PMSF, centrifuged and incubated as above. Each assay tube contained 2 nM [^3H]-DPDPE. Assay tubes were incubated for 2.5 h at 25 °C. Unlabeled DPDPE was used as a competitor to generate a standard curve and determine nonspecific binding.
as §1

[4] = experiment 1, unit inferred, read-out: Ki (Exp 1)
[5] = experiment 2, unit inferred, read-out: Ki (Exp 2)
[6] = mean of Exp 1 and Exp 2, unit inferred, read-out: MEAN (Ki)
[7] = mean of two experiments, read-out: Ki
[8] = first Ki column, unit not printed (apparently M), read-out: Ki (first column)
[9] = mean of both Ki, unit inferred, read-out: MEAN (Ki)
[10] = second Ki column, unit not printed (apparently M), read-out: Ki (second column)

Structure (SMILES) | Ki [1, 4] [nM] | Ki [1, 5] [nM] | Ki [1, 6] [nM] | Ki [1, 7] [nM] | Ki [2, 4] [nM] | Ki [2, 5] [nM] | Ki [2, 6] [nM] | Ki [2, 7] | Ki [3, 8] [nM] | Ki [3, 9] [nM] | Ki [3, 7] [nM] | Ki [3, 10] [nM]
Cc1cc(O)cc(C)c1C[C@H]1CN([C@@H](Cc2c(C)cc(O)cc2C)CN2C(=N)NC[C@@H]2Cc2c(C)cc(O)cc2C)C(=N)N1 [1968-64] | 58.6 | 88 | 73.3 | 73 | 2820 | 1590 | 2210 | 2210 nM | 508 | 579 | 579 | 650
Cc1cc(O)cc(C)c1C[C@@H](CN1C(=N)NC[C@@H]1Cc1ccccc1)N1C[C@H](Cc2ccccc2)NC1=N [1968-67] | 230 | 177 | 203 | 203 | 1230 | 1120 | 1170 | 1170 nM | 828 | 830 | 830 | 833
Cc1cc(O)cc(C)c1C[C@H]1CN([C@@H](CC(C)C)CN2C(=N)NC[C@@H]2Cc2c(C)cc(O)cc2C)C(=N)N1 [1968-60] | 66.4 | 71.2 | 68.8 | 69 | 308 | 422 | 365 | 365 nM | 978 | 814 | 814 | 651
CC(C)C[C@H]1CN([C@@H](Cc2ccc(O)cc2)CN2C(=N)NC[C@@H]2Cc2ccc(O)cc2)C(=N)N1 [1968-23] | 2350 | 2270 | 2310 | 2310 | 9520 | 7360 | 8440 | 8440 nM |  |  |  | 
N=C1NC[C@H](Cc2ccc(O)cc2)N1C[C@H](Cc1ccc(O)cc1)N1C[C@H](Cc2ccc(O)cc2)NC1=N [1968-70] | 230 | 282 | 256 | 256 | 11100 | 5550 | 8320 | 8320 nM | 9960 | 10800 | 10800 | 11700
Cc1cc(O)cc(C)c1C[C@H]1CNC(=N)N1C[C@H](Cc1ccc(O)cc1)N1C[C@H](Cc2ccc(O)cc2)NC1=N [1968-54] | 72.3 | 56.4 | 64.3 | 64 | 1460 | 1600 | 1530 | 1530 nM | 3550 | 3280 | 3280 | 3010
CC(C)C[C@H]1CN([C@@H](Cc2ccc(O)cc2)CN2C(=N)NC[C@@H]2Cc2ccccc2)C(=N)N1 [1968-66] | 2040 | 1990 | 2020 | 2020 | 2660 | 3320 | 2990 | 2990 nM | 18200 |  |  | 
C[C@H]1CNC(=N)N1C[C@H](Cc1ccccc1)N1C[C@H](Cc2ccc(O)cc2)NC1=N [1968-34] | 1480 | 1070 | 1280 | 1280 | 6520 | 9150 | 7830 | 7830 nM | 5140 | 6650 | 6650 | 8160
CC(C)C[C@@H](CN1C(=N)NC[C@@H]1C)N1C[C@H](Cc2ccccc2)NC1=N [1968-41] | 5620 | 7390 | 6510 | 6510 | 23900 | 22000 | 23000 | 23000 nM | 7310 |  |  | 
Cc1cc(O)cc(C)c1C[C@@H](CN1C(=N)NC[C@@H]1C)N1C[C@H](CC(C)C)NC1=N [1968-19] | 15.9 | 14.2 | 15 | 15 | 89.3 | 43.8 | 66.5 | 66.5 nM and 66 nM | 1180 | 1090 | 1100 | 1010
Cc1cc(O)cc(C)c1C[C@H]1CN([C@@H](Cc2c(C)cc(O)cc2C)CN2C(=N)NC[C@@H]2Cc2ccc(O)cc2)C(=N)N1 [1968-32] | 106 | 134 | 120 | 120 | 1760 | 1480 | 1620 | 1620 nM | 469 | 488 | 488 | 507
C[C@H]1CNC(=N)N1C[C@H](Cc1ccc(O)cc1)N1C[C@H](Cc2ccccc2)NC1=N [1968-37] | 749 | 588 | 669 | 669 | 3450 | 3880 | 3660 | 3660 nM | 3430 | 3610 | 3610 | 3800
Cc1cc(O)cc(C)c1C[C@H]1CN([C@@H](Cc2ccccc2)CN2C(=N)NC[C@@H]2Cc2c(C)cc(O)cc2C)C(=N)N1 [1968-52] | 83.4 | 102 | 92.8 | 93 | 1200 | 1240 | 1220 | 1220 nM | 582 | 551 | 551 | 521
Cc1cc(O)cc(C)c1C[C@H]1CNC(=N)N1C[C@H](Cc1ccccc1)N1C[C@H](Cc2ccccc2)NC1=N [1968-49] | 53.4 | 84.7 | 69.1 | 69 | 1230 | 1210 | 1220 | 1220 nM | 615 | 543 | 543 | 472
C[C@H]1CNC(=N)N1C[C@H](Cc1ccccc1)N1C[C@H](Cc2ccccc2)NC1=N [1968-33] | 4170 | 2540 | 3350 | 3360 | 16300 | 14100 | 15200 | 15200 nM | 16600 | 11300 | 11300 | 5950
CC(C)C[C@@H](CN1C(=N)NC[C@@H]1Cc1ccccc1)N1C[C@H](Cc2ccc(O)cc2)NC1=N [1968-10] | 199 | 281 | 240 | 240 | 5470 | 4840 | 5160 | 5160 nM | 2230 | 2210 | 2210 | 2190
Cc1cc(O)cc(C)c1C[C@H]1CNC(=N)N1C[C@H](Cc1ccccc1)N1C[C@H](CC(C)C)NC1=N [1968-51] | 126 | 162 | 144 | 144 | 872 | 639 | 755 | 755 nM | 2580 | 2550 | 2560 | 2530
CC(C)C[C@H]1CN([C@@H](Cc2ccccc2)CN2C(=N)NC[C@@H]2Cc2ccccc2)C(=N)N1 [1968-3] | 2560 | 2630 | 2590 | 2590 | 4510 | 4840 | 4670 | 4670 nM | 6370 | 6660 | 6660 | 6950
CC(C)C[C@H]1CN([C@@H](CC(C)C)CN2C(=N)NC[C@@H]2Cc2ccc(O)cc2)C(=N)N1 [1968-27] | 960 | 1000 | 981 | 981 | 4240 | 4840 | 4540 | 4540 nM |  |  |  | 
CC(C)C[C@H]1CN([C@@H](Cc2ccccc2)CN2C(=N)NC[C@@H]2C)C(=N)N1 [1968-35] | 4450 | 4580 | 4510 | 4510 | 34100 | 52600 | 43300 | 43300 nM |  |  |  | 
